Laboratory results from patent US11963961B2, “Combination therapy comprising an ACC inhibitor” (Gilead Sciences, Inc., priority 2017, dated 2024).
Read-outs that look alike come from different tables or passages of the source.

What was measured:
[1] = test system: non-cirrhotic subjects with NASH; assay: Phase 2 randomized placebo-controlled trial of Compound 1 in NASH: imaging, liver biochemistry, serum fibrosis markers, tolerability; type: in vivo, human; settings: for Liver stiffness by FibroScan, median relative change from baseline: W12, n = 40; for Hyaluronic acid, median relative change from baseline / PIII-NP, median relative change from baseline / TIMP-1, median relative change from baseline: W12, serum
Experimental: Methods: In this double-blind, placebo-controlled trial, 126 non-cirrhotic subjects with NASH diagnosed noninvasively by MRI proton density fat fraction (PDFF) ≥8% and liver stiffness ≥2.5 kPa by MR elastography (MRE), or historical liver biopsy consistent with NASH and stage 1 to 3 fibrosis, were randomized 2:2:1 to receive Compound 1 20 mg, Compound 1 5 mg, or placebo orally QD for 12 weeks ([…]). Centrally-read MRI-PDFF and MRE, and FibroScan and serum markers of fibrosis were measured at baseline and […]. In some subjects, liver stiffness and hepatic fat content by Controlled Attenuation Parameter (CAP) were assessed using transient elastography (FibroScan®; Echosens, Paris, France) at baseline (i.e. week 0) and week 12.

[2] = test system: non-cirrhotic subjects with NASH; assay: Phase 2 trial of Compound 1 in NASH: standard lipid tests and NMR LipoProfile lipoproteins in fasting serum; type: in vivo, human; settings: for HDL-P (total HDL particles), median / HDL-C, median / VLDL-P (total VLDL particles), median / LDL-C, median / TG, median / TC, median / LDL-P (total LDL particles), median: Compound 1 20 mg daily; for HDL-P (total HDL particles), median: BL 30; for HDL-C, median: BL 42; for VLDL-P (total VLDL particles), median: BL 53; for LDL-C, median: BL 99; for TG, median: BL 160; for TC, median: BL 179; for LDL-P (total LDL particles), median: BL 1397
Experimental: Methods: In this double-blind, placebo-controlled trial, 126 non-cirrhotic subjects with NASH diagnosed noninvasively by MRI proton density fat fraction (PDFF) ≥8% and liver stiffness ≥2.5 kPa by MR elastography (MRE), or historical liver biopsy consistent with NASH and stage 1 to 3 fibrosis, were randomized 2:2:1 to receive Compound 1 20 mg, Compound 1 5 mg, or placebo orally QD for 12 weeks (W12). Centrally-read MRI-PDFF and MRE, and FibroScan and serum markers of fibrosis were measured at baseline and W12. In some subjects, liver stiffness and hepatic fat content by Controlled Attenuation Parameter (CAP) were assessed using transient elastography (FibroScan®; Echosens, Paris, France) at baseline (i.e. week 0) and week 12.
In addition to standard lipid tests (serum triglycerides (“TG”), total cholesterol (“TC”), low density lipoprotein cholesterol (“LDL-C”), and high density lipoprotein cholesterol (“HDL-C”), lipoproteins also were measured by nuclear magnetic resonance spectroscopy (NMR LipoProfile®, LabCorp) in fasting serum samples at baseline (“BL”), week 1 (W1), week 4 (W4), and W12. Changes from BL in Compound 1-treated subjects were evaluated using Wilcoxon sign-rank tests and comparisons vs placebo using Wilcoxon rank-sum tests (all with Bonferroni adjustment).

[3] = test system: subjects with steatosis and F1-F3 fibrosis / NASH; settings: Compound 1 20 mg; for ≥30% reduction in MRI-PDFF, % of subjects: 12 weeks
Experimental: Ten subjects with steatosis (MRI-PDFF≥10%) and F1-F3 fibrosis (MRE≥2.88 kPa but non-cirrhotic based on FibroText <0.75, historical imaging and liver biopsy) were treated 20 mg Compound 1 for 12 weeks.
Four of the ten subjects were on fish oil or fenofibrate at baseline and continued the concomitant medication for the duration of the study. Throughout the study subjects were monitored for safety (adverse events, laboratory abnormalities), liver biochemistry, serum markers of fibrosis (ELF and its components TIMP-1, hyaluronic acid, PIII-NP) and cell death (CK18 M30 and M65), liver stiffness (MRE) and fat (MRI-PDFF) and the effect on de novo lipogensis was assessed using heavy water labeling.
The four subjects were analyzed in conjunction with eight subjects from the study described in Example 1. These twelve subjects were on fish oil or fibrates for at least six weeks of the study and included those who were on fish oil or fibrates at baseline or who had graded hypertriglyceridemia and were given fish oil or fibrates during the study.

[4] = Compound 1 5 mg orally QD, W12, n = 47
[5] = Compound 1 20 mg orally QD, W12, n = 46
[6] = Compound 1 20 mg, 5 mg, placebo, W12
[7] = split by fibrate/fish oil for > 6 weeks: without n = 47, with n = 12

COc1ccccc1[C@H](Cn1c(=O)n(C(C)(C)C(=O)O)c(=O)c2c(C)c(-c3ncco3)sc21)OC1CCOCC1 [Compound 1, (R)-2-(1-(2-(2-methoxyphenyl)-2-((tetrahydro-2H-pyran-4-yl)oxy)ethyl)-5-methyl-6-(oxazol-2-yl)-2,4-dioxo-1,2-dihydrothieno[2,3-d]pyrimidin-3(4H)-yl)-2-methylpropanoic acid]
ALT, median relative change from baseline ([1]; Compound 1 5 mg orally QD, W12): −9.8%
≥30% reduction in MRI-PDFF, % of subjects ([1]; Compound 1 5 mg orally QD, W12 (11/47)): 23%
≥15% reduction in MRE-stiffness, % of subjects ([1]; Compound 1 5 mg orally QD, W12 (19/47)): 40%
Liver stiffness by FibroScan, median relative change from baseline ([1]; Compound 1 5 mg orally QD): −8.4%
MRE-stiffness, median relative change from baseline [1, 4]: −9.6%
MRI-PDFF, median relative change from baseline [1, 4]: −13.0%
Hyaluronic acid, median relative change from baseline ([1]; Compound 1 5 mg orally QD): −0.7%
PIII-NP, median relative change from baseline ([1]; Compound 1 5 mg orally QD): −7.0%
TIMP-1, median relative change from baseline ([1]; Compound 1 5 mg orally QD): −2.9%
MRI-PDFF, differences from placebo ([1]; Compound 1 5 mg, W12): not statistically significant
Median alkaline phosphatase, change ([1]; Compound 1 5 mg, W12): unchanged
Hepatic steatosis by CAP (Controlled Attenuation Parameter) ([1]; Compound 1 20 mg and 5 mg, week 12, differences not statistically significant): Dose-dependent reductions
Tolerability ([1]; Compound 1 20 mg or 5 mg QD, 12 weeks): generally well-tolerated
ALT, median relative change from baseline ([1]; Compound 1 20 mg orally QD, W12): −20.5%
≥15% reduction in MRE-stiffness, % of subjects ([1]; Compound 1 20 mg orally QD, W12 (15/46)): 33%
≥30% reduction in MRI-PDFF, % of subjects ([1]; Compound 1 20 mg orally QD, W12 (22/46)): 48%
Liver stiffness by FibroScan, median relative change from baseline ([1]; Compound 1 20 mg orally QD): −11.1%
MRE-stiffness, median relative change from baseline [1, 5]: −5.5%
MRI-PDFF, median relative change from baseline [1, 5]: −28.9%
Hyaluronic acid, median relative change from baseline ([1]; Compound 1 20 mg orally QD): −6.9%
PIII-NP, median relative change from baseline ([1]; Compound 1 20 mg orally QD): −13.9%
TIMP-1, median relative change from baseline ([1]; Compound 1 20 mg orally QD): −7.9%
Liver stiffness by FibroScan, M probe, change from baseline to week 12 between treatment groups ([1]; Compound 1 20 mg, 5 mg, placebo): no differences
Changes in liver stiffness by MRE [1, 6]: did not differ between groups
Changes in other liver biochemistry tests and the composite ELF score among the treatment groups [1, 6]: not significantly different
MRI-PDFF compared with placebo ([1]; Compound 1 20 mg, W12): statistically and clinically significant decrease
Serum levels of TIMP-1 ([1]; Compound 1 20 mg, W12, p=0.022 vs placebo): significant reductions
Median alkaline phosphatase, increase ([1]; Compound 1 20 mg, W12, p≤0.001 vs placebo): 9%
Asymptomatic Grade 3 or 4 TG elevations (>500 mg/dL), number of subjects ([2]; Compound 1 5 mg): 9 subjects
Median relative change in triglycerides (TG) ([2]; Compound 1 5 mg, W12): +13%
Asymptomatic Grade 3 or 4 TG elevations (>500 mg/dL), number of subjects ([2]; Compound 1 20 mg): 7 subjects
HDL-P (total HDL particles), median ([2]; W1): 30 µmol/L
HDL-C, median ([2]; W1): 39 mg/dL
VLDL-P (total VLDL particles), median ([2]; W1): 72 nmol/L
LDL-C, median ([2]; W1): 102 mg/dL
TG, median ([2]; W1): 191 mg/dL
TC, median ([2]; W1): 192 mg/dL
LDL-P (total LDL particles), median ([2]; W1): 1260 nM
HDL-P (total HDL particles), median ([2]; W4): 30 µmol/L
HDL-C, median ([2]; W4): 39 mg/dL
VLDL-P (total VLDL particles), median ([2]; W4): 52 nmol/L
LDL-C, median ([2]; W4): 96 mg/dL
TG, median ([2]; W4): 188 mg/dL
TC, median ([2]; W4): 184 mg/dL
LDL-P (total LDL particles), median ([2]; W4): 1360 nM
HDL-P (total HDL particles), median ([2]; W12): 30 µmol/L
HDL-C, median ([2]; W12): 42 mg/dL
VLDL-P (total VLDL particles), median ([2]; W12): 52 nmol/L
LDL-C, median ([2]; W12): 99 mg/dL
TG, median ([2]; W12): 177 mg/dL
TC, median ([2]; W12): 182 mg/dL
LDL-P (total LDL particles), median ([2]; W12): 1230 nM
Changes in glucose, insulin, or HbA1c compared to placebo ([2]; Compound 1 20 mg or 5 mg): no significant changes
Median relative change in triglycerides (TG) ([2]; Compound 1 20 mg, W12): +11%
Changes from baseline in HDL-C, TC, and LDL-C ([2]; Compound 1-treated subjects, W12): not significant
Median TG increase ([2]; Compound 1-treated subjects, W12, IQR (−6, 72), p=0.14 vs placebo): 14 mg/dL
Changes in total HDL or total LDL particles ([2]; subjects on Compound 1): No significant changes
Time course of TG elevations ([2]; subjects on Compound 1): peaked at W1 and declined thereafter
≥30% reduction in MRI-PDFF, % of subjects ([3]; all subjects (n = 59)): 49%
≥30% reduction in MRI-PDFF, % of subjects [3, 7]: 43%
ALT, median relative change over 12 weeks ([3]; all subjects (n = 59)): −21.9%
ELF, median relative change over 12 weeks ([3]; all subjects (n = 59)): −0.8%
Fasting Glucose, median relative change over 12 weeks ([3]; all subjects (n = 59)): −2.0%
Hemoglobin A1c, median relative change over 12 weeks ([3]; all subjects (n = 59)): −1.4%
Hyaluronic acid, median relative change over 12 weeks ([3]; all subjects (n = 59)): −5.9%
MRE, median relative change over 12 weeks ([3]; all subjects (n = 59)): −6.6%
MRI-PDFF, median relative change over 12 weeks ([3]; all subjects (n = 59)): −31.0%
PIII-NP, median relative change over 12 weeks ([3]; all subjects (n = 59)): −13.9%
TIMP-1, median relative change over 12 weeks ([3]; all subjects (n = 59)): −8.8%
FibroScan, median relative change over 12 weeks ([3]; all subjects, only Phase 2 study of Example 1): −11.1%
ALT, median relative change over 12 weeks [3, 7]: −19.4%
ELF, median relative change over 12 weeks [3, 7]: −0.35%
Fasting Glucose, median relative change over 12 weeks [3, 7]: −1.9%
Hemoglobin A1c, median relative change over 12 weeks [3, 7]: −1.4%
Hyaluronic acid, median relative change over 12 weeks [3, 7]: −4.5%
MRE, median relative change over 12 weeks [3, 7]: −3.2%
MRI-PDFF, median relative change over 12 weeks [3, 7]: −27.9%
PIII-NP, median relative change over 12 weeks [3, 7]: −13.9%
TIMP-1, median relative change over 12 weeks [3, 7]: −7.85%
FibroScan, median relative change over 12 weeks ([3]; split by fibrate/fish oil for > 6 weeks, only Phase 2 study of Example 1, n = 6 with fibrate/fish oil): −9.8%
